Assay results taken from patent US10449208B2, “Antiviral prodrugs of tenofovir” (Merck Sharp & Dohme Corp., priority 2016, dated 2019).
Where two headings read alike, the source gives them in different places.

Columns and labels:
HIV-1 (H9/IIIB strain) = assay: Multiple round HIV-1 infection assay (Viking assay) in MT4-GFP cells; format: cell-based; conditions: MT4-GFP cells infected with HIV-1 H9/IIIB, inhibition of reproductive ratio R0
Experimental: Assessing Antiviral Potency in a Multiple Round HIV-1 Infection Assay (Viking Assay)
The antiviral activity of the tenofovir prodrugs of the Examples herein was assessed in an assay that measures the rate of replication of HIV in cell culture, termed the Viking assay (Viral KINetics in Green cells) and performed as follows. HIV-1 replication was monitored using MT4-gag-GFP clone D3 (hereafter designated MT4-GFP), which are MT-4 cells modified to harbor a GFP reporter gene, the expression of which is dependent on the HIV-1 expressed proteins tat and rev. Productive infection of an MT4-GFP cell with HIV-1 results in GFP expression approximately 24 h post-infection. MT4-GFP cells were maintained at 37° C./5% CO2/90% relative humidity in RPMI 1640 supplemented with 10% fetal bovine serum, 100 μ/ml penicillin/streptomycin, and 400 μg/ml G418 to maintain the reporter gene. For infections, MT4-GFP cells were placed in the same medium lacking G418 and infected overnight with HIV-1 (H9/IIIB strain) virus at an approximate multiplicity of infection of 0.01 in the same incubation conditions. Cells were then washed and re-suspended in either RPMI 1640 supplemented with 10% or 50% normal human serum (NFIS) at 1.6×10^5 cells/mL (10% NHS or 50% NHS, respectively). Compound plates were prepared by dispensing compounds dissolved in DMSO into wells of 384 well poly-D -lysine-coated plates (0.2 μl/well) using an ECHO acoustic dispenser. Each compound was tested in a 10-point serial 3-fold dilution (typical final concentrations: 8.4 μM-0.42 nM). Controls included no inhibitor (DMSO only) and a combination of three antiviral agents (efavirenz, indinavir, an in-house integrase strand transfer inhibitor at final concentrations of 4 μM each). Cells were added (50 μL/well) to compound plates and the infected cells were maintained at 37° C./5% CO2/90% relative humidity.
infected cells were quantified at two time points, ˜48 h and ˜72 h post -infection, by counting the number of green cells in each well using an Acumen eX3 scanner. The increase in the number of green cells over ˜24 h period gives the reproductive ratio, R0, which is typically 5-15 and has been shown experimentally to be in logarithmic phase (data not shown). Inhibition of R0 is calculated for each well, and IC50s determined by non-linear 4-parameter curve fitting.

[1] = Prodrug stability assay in bio-relevant media (FaSSIF with Pancreatin, simulated gastrointestinal tract conditions); format: in vitro ADME; conditions: % parent prodrug remaining at 5 h vs 0 h, 37° C., 0.5 mg/mL Pancreatin in FaSSIF, HPLC area ratio
Experimental: Prodrug Stability Assay in Bio-Relevant Media
The following assay was employed to evaluate the stability of the prodrugs in simulated gastrointestinal tract conditions. Preparation of fasted state simulated intestinal fluid (FaSSIF) using Phares SIF Powder was carried out according to protocols from Phare Drug Delivery AG (Baselland, Switzerland). For sample preparation, 10 μL stock solutions (10 mM) of prodrug substance in DMSO was added to 990 μL of 0.5 mg/mL Pancreatin solution (Fisher CAS#8049-47-6) in FaSSIF. Two samples were prepared for each compound at initial. If the sample was clear solution at the beginning, ran one sample directly as initial by HPLC; if the sample was not clear at starting, diluted the sample by 100% ACN. Put the other sample under 37° C. and observed the sample at 5 h time-point. At 5 h time point, if the sample was clear solution then performed HPLC analysis directly; if it was not clear solution, diluted the sample by 100% ACN and assayed by HPLC. All the samples were vortexed for 3 min and observed before injection. For the diluted samples, the area will be multiplied by a factor when data analysis. The analysis was carried out with an Agilent 1100 series HPLC with autosampler. The column was usually a Poroshell 120 EC -C18, 4.6×50 mm, 2.7 μm. The flow rate was 1.8 mL/min, and the injection volume was 5 or 10 μL. UV detection was in the range 210-400 nm. The mobile phase consisted of solvent A (water plus 10 mM tetrabutylammonium bromide) and solvent B (acetonitrile) with a gradient of 90% solvent A at 0 min changing to 95% solvent B over 6 min, maintained for 1.5 min, then reverting to 90% solvent A over 1.6 min. The area of the parent in prodrug at 5h time point was divided by the area of the parent in prodrug at 0 h time point, to generate the % claimed parent ratio, which are summarized in Table 2 for GI Tract stability.

[2] = Human immunodeficiency virus 1, IIIB, 10% normal human serum, read-out: Viking, IC50 (10% NHS)
[3] = Human immunodeficiency virus 1, IIIB, 50% normal human serum, read-out: Viking, IC50 (50% NHS)
[4] = 50% normal human serum, read-out: Viking, IC50 (50% NHS)
[5] = 10% normal human serum, read-out: Viking, IC50 (10% NHS)

| SMILES | GI Tract stability [1] [%] | IC50 (HIV-1 (H9/IIIB strain); [2]) [nM] | IC50 (HIV-1 (H9/IIIB strain); [3]) [nM] | IC50 (HIV-1 (H9/IIIB strain); [4]) [nM] | IC50 (HIV-1 (H9/IIIB strain); [5]) [nM] |
| --- | --- | --- | --- | --- | --- |
| CC(C)OC(=O)[C@H](C)OP(=O)(CO[C@H](C)Cn1cnc2c(N)ncnc21)NC(C)(C)C(=O)OC(C)C (single isomer, unassigned) [Example 1A] | 85.74 | 14.7 |  | 61.1 |  |
| CC(C)OC(=O)[C@H](C)OP(=O)(CO[C@H](C)Cn1cnc2c(N)ncnc21)NC(C)(C)C(=O)OC(C)C (single isomer, unassigned) [Example 1B] | 99.82 |  |  | 12.1 | 7.43 |
| CCCCCOC(=O)C(C)(C)NP(=O)(CO[C@H](C)Cn1cnc2c(N)ncnc21)O[C@@H](C)C(=O)OC(C)C (single isomer, unassigned) [Example 2A] | 61.61 |  |  | 22.1 | 4.05 |
| CCCCCOC(=O)C(C)(C)NP(=O)(CO[C@H](C)Cn1cnc2c(N)ncnc21)O[C@@H](C)C(=O)OC(C)C (single isomer, unassigned) [Example 2B] | 91.95 |  |  | 70.9 | 18.2 |
| CC(C)OC(=O)COP(=O)(CO[C@H](C)Cn1cnc2c(N)ncnc21)NC(C)(C)C(=O)OC(C)C (single isomer, unassigned) [Example 3A] | 96.63 | 36.6 |  | 121 |  |
| CC(C)OC(=O)COP(=O)(CO[C@H](C)Cn1cnc2c(N)ncnc21)NC(C)(C)C(=O)OC(C)C (single isomer, unassigned) [Example 3B] | 95.71 |  |  | 47.9 | 29.1 |
| CCCCCOC(=O)C(C)(C)NP(=O)(CO[C@H](C)Cn1cnc2c(N)ncnc21)OCC(=O)OC(C)C (single isomer, unassigned) [Example 4A] | 99.07 | 13.9 | 86.5 |  |  |
| CCCCCOC(=O)C(C)(C)NP(=O)(CO[C@H](C)Cn1cnc2c(N)ncnc21)OCC(=O)OC(C)C (single isomer, unassigned) [Example 4B] | 98.87 |  |  | 158 | 19.4 |
| CCCCCCOC(=O)C(C)(C)NP(=O)(CO[C@H](C)Cn1cnc2c(N)ncnc21)OCC(=O)OC(C)C (single isomer, unassigned) [Example 6A] | 95.97 | 3.14 | 15.2 |  |  |
| CCCCCCOC(=O)C(C)(C)NP(=O)(CO[C@H](C)Cn1cnc2c(N)ncnc21)OCC(=O)OC(C)C (single isomer, unassigned) [Example 6B] | 73.16 |  |  | 7.99 | 2.14 |
| CCCCCCOC(=O)C(C)(C)NP(=O)(CO[C@H](C)Cn1cnc2c(N)ncnc21)O[C@@H](C)C(=O)OC(C)C (single isomer, unassigned) [Example 7A] | 15.36 |  |  | 21 | 5.03 |
| CCCCCCOC(=O)C(C)(C)NP(=O)(CO[C@H](C)Cn1cnc2c(N)ncnc21)O[C@@H](C)C(=O)OC(C)C (single isomer, unassigned) [Example 7B] | 76.64 |  |  | 1.01 | 0.37 |
| CCCCCOC(=O)COP(=O)(CO[C@H](C)Cn1cnc2c(N)ncnc21)NC(C)(C)C(=O)OC(C)C (single isomer, unassigned) [Example 8A] | 94.11 |  |  | 27 | 6.76 |
| CC(C)OC(=O)[C@H](C)OP(=O)(CO[C@H](C)Cn1cnc2c(N)ncnc21)NC1(C(=O)OC(C)C)CCCC1 (stereo partly drawn) [Example 48, Isopropyl 1-((((((R)-1-(6-amino-9H-purin-9-yl)propan-2-yl)oxy)methyl)(((S)-1-isopropoxy-1-oxopropan-2-yl)oxy)phosphoryl)amino)cyclo-pentane-1-carboxylate] |  | 13.3 | 37.3 |  |  |
| CC(C)OC(=O)[C@H](C)OP(=O)(CO[C@H](C)Cn1cnc2c(N)ncnc21)NC1(C(=O)OC(C)C)CCC1 (stereo partly drawn) [Example 50, Isopropyl 1-((((((R)-1-(6-amino-9H-purin-9-yl)propan-2-yl)oxy)methyl)(((S)-1-isopropoxy-1-oxopropan-2-yl)oxy)phosphoryl)amino)cyclo-butane-1-carboxylate] |  | 8.66 | 34.3 |  |  |
| CC(C)OC(=O)[C@H](C)OP(=O)(CO[C@H](C)Cn1cnc2c(N)ncnc21)NC1(C(=O)OC(C)C)CCCCC1 (stereo partly drawn) [Example 52, Isopropyl 1-((((((R)-1-(6-amino-9H-purin-9-yl)propan-2-yl)oxy)methyl)(((S)-1-isopropoxy-1-oxopropan-2-yl)oxy)phosphoryl)amino)cyclo-hexane-1-carboxylate] |  | 10.8 | 45.6 |  |  |

The next lines start with results.

| GI Tract stability [1] [%] | SMILES | IC50 (HIV-1 (H9/IIIB strain); [2]) [nM] | IC50 (HIV-1 (H9/IIIB strain); [3]) [nM] | IC50 (HIV-1 (H9/IIIB strain); [4]) [nM] | IC50 (HIV-1 (H9/IIIB strain); [5]) [nM] |
| --- | --- | --- | --- | --- | --- |
| 73.54 | CC(C)OC(=O)COP(=O)(CO[C@H](C)Cn1cnc2c(N)ncnc21)NC(C)(C)C(=O)OCc1ccccc1 (mixture of isomers) [Example 42, Benzyl 2-((((((R)-1-(6-amino-9H-purin-9-yl)propan-2-yl)oxy)methyl)(2-isopropoxy-2-oxoethoxy)phosphoryl)amino)-2-methylpropanoate] | 5 | 21.8 |  |  |
| 71.6 | CCCCCOC(=O)COP(=O)(CO[C@H](C)Cn1cnc2c(N)ncnc21)NC(C)(C)C(=O)OC(C)C (single isomer, unassigned) [Example 8B] |  |  | 161 | 22.7 |
| 6.16 | CCCCCCOC(=O)C(C)(C)NP(=O)(CO[C@H](C)Cn1cnc2c(N)ncnc21)O[C@H](C)C(=O)OC(C)C (single isomer, unassigned) [Example 9B] |  |  | 2.78 | 1 |
| 98.95 | CC(C)OC(=O)[C@H](C)OP(=O)(CO[C@H](C)Cn1cnc2c(N)ncnc21)NC(C)(C)C(=O)OC1CCCCC1 (single isomer, unassigned) [Example 12A] | 5.71 | 25.2 |  |  |
| 70.30 | CC(C)OC(=O)C(C)(C)NP(=O)(CO[C@H](C)Cn1cnc2c(N)ncnc21)O[C@@H](C)C(=O)OC1CCCC1 (single isomer, unassigned) [Example 13A] | 6.17 | 51.1 |  |  |
| 99.72 | CC(C)OC(=O)C(C)(C)NP(=O)(CO[C@H](C)Cn1cnc2c(N)ncnc21)O[C@@H](C)C(=O)OC1CCCC1 (single isomer, unassigned) [Example 13B] |  |  | 60.2 | 9.44 |
| 99.32 | CC(C)OC(=O)COP(=O)(CO[C@H](C)Cn1cnc2c(N)ncnc21)NC(C)(C)C(=O)OC1CCC1 (single isomer, unassigned) [Example 17B] |  |  | 18.4 | 6.7 |
| 76.31 | CC(C)OC(=O)[C@H](C)OP(=O)(CO[C@H](C)Cn1cnc2c(N)ncnc21)NC(C)(C)C(=O)OC1CCCC1 (single isomer, unassigned) [Example 18A] |  | 16.5 |  | 6.59 |
